Like-named read-outs stand apart in the source and are kept apart here.
Tested on: HBV
Experiment: Viral production from HepAD38 cells, viral load by qPCR of HBV core sequence
Type: cell-based
Conditions: 5 days, supernatant HBV DNA by qPCR, read-out: Viral Load EC50 Activity range
Method in brief: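 HepAD38 cells in tetracycline-free medium with 2% FBS, 50,000 cells/well, treated 5 days at 37° C. with compound from 10 μM top concentration (1% DMSO final). Supernatant HBV DNA measured by TaqMan qPCR of core sequence against standards, versus DMSO wells; viability by CellTiter-Glo; EC50/CC50 by four-parameter fit.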

[1] = Hepatitis B virus, HePAD38, 120 h

Cn1nc(C2CC3COC(=O)CC3C2)c(C(=O)Nc2ccc(F)c(Cl)c2)c1N (centres unmarked) [AIA-275]
EC50: < 0.1 µM

COc1cccc([C@H]2CC[C@H](c3nn(C)c(N)c3C(=O)Nc3ccc(F)c(Cl)c3)C2)c1 [AIA-276C]
EC50: < 0.1 µM

COc1cccc(C2CCC(c3nn(C)c(N)c3C(=O)Nc3ccc(F)c(Cl)c3)C2)c1 (centres unmarked) [AIA-276]
EC50: < 0.1 µM

Cn1nc(C2CCC(c3ccccc3)C2)c(C(=O)Nc2cc(F)c(F)c(Br)c2)c1N (centres unmarked) [AIA-278, 5-Amino-N-(3-bromo-4,5-difluorophenyl)-1-methyl-3-(3-phenylcyclopentyl)-1H-pyrazole-4-carboxamide]
EC50 [1]: 0.1 to 0.5 µM

Cn1nc(C2CCC(c3ccccc3)C2)c(C(=O)Nc2ccc(F)c(C#N)c2)c1N (centres unmarked) [AIA-279, 5-Amino-N-(3-cyano-4-fluorophenyl)-1-methyl-3-(3-phenylcyclopentyl)-1H-pyrazole-4-carboxamide]
EC50 [1]: < 0.1 µM

Cn1cnc(C2CCC(c3nn(C)c(N)c3C(=O)Nc3ccc(F)c(Cl)c3)C2)c1 (centres unmarked) [AIA-280, 5-Amino-N-(3-chloro-4-fluoro-phenyl)-1-methyl-3-[3-(1-methylimidazol-4-yl)cyclopentyl]pyrazole-4-carboxamide]
EC50 [1]: 0.1 to 0.5 µM

Cn1nc(C2CCC(c3ccc(F)cc3)C2)c(C(=O)Nc2ccc(F)c(Cl)c2)c1N (centres unmarked) [AIA-281, 5-Amino-N-(3-chloro-4-fluorophenyl)-3-(3-(4-fluorophenyl)cyclopentyl)-1-methyl-1H-pyrazole-4-carboxamide]
EC50 [1]: < 0.1 µM

Cn1nc(C2CC3CC(O)(CSCCO)CC3C2)c(C(=O)Nc2ccc(F)c(Cl)c2)c1N (centres unmarked) [AIA-283]
EC50: < 0.1 µM

Cn1nc(C2CC3CC(O)(CSCCN4CCOCC4)CC3C2)c(C(=O)Nc2ccc(F)c(Cl)c2)c1N (centres unmarked) [AIA-284]
EC50: < 0.1 µM

COC1CC2CC(c3nn(C)c(N)c3C(=O)Nc3ccc(F)c(Cl)c3)CC2C1 (centres unmarked) [AIA-285]
EC50: < 0.1 µM

CC(=O)NC1CC2CC(c3nn(C)c(N)c3C(=O)Nc3ccc(F)c(Cl)c3)CC2C1 (centres unmarked) [AIA-288]
EC50: < 0.1 µM

Cn1nc(C2CC3CC4(CC3C2)OCCO4)c(C(=O)Nc2ccc(F)c(Cl)c2)c1N (centres unmarked) [AIA-290]
EC50: < 0.1 µM

Cn1nc(C2CCC(c3ccc(OC(F)(F)F)cc3)C2)c(C(=O)Nc2ccc(F)c(Cl)c2)c1N (centres unmarked) [AIA-292, 5-Amino-N-(3-chloro-4-fluorophenyl)-1-methyl-3-(3-(4-(trifluoromethoxy)phenyl)cyclopentyl)-1H-pyrazole-4-carboxamide]
EC50 [1]: 0.5 to 10 µM

CN(C)c1ccc(C2CCC(c3nn(C)c(N)c3C(=O)Nc3ccc(F)c(Cl)c3)C2)cc1 (centres unmarked) [AIA-293, 5-Amino-N-(3-chloro-4-fluorophenyl)-3-(3-(4-(dimethylamino)phenyl)cyclopentyl)-1-methyl-1H-pyrazole-4-carboxamide]
EC50 [1]: < 0.1 µM

CC(=O)Nc1ccc(C2CCC(c3nn(C)c(N)c3C(=O)Nc3ccc(F)c(Cl)c3)C2)cc1 (centres unmarked) [AIA-294, 3-(3-(4-Acetamidophenyl)cyclopentyl)-5-amino-N-(3-chloro-4-fluorophenyl)-1-methyl-1H-pyrazole-4-carboxamide]
EC50 [1]: < 0.1 µM

CC(C)Oc1ccc(C2CCC(c3nn(C)c(N)c3C(=O)Nc3ccc(F)c(Cl)c3)C2)cc1 (centres unmarked) [AIA-296, 5-Amino-N-(3-chloro-4-fluorophenyl)-3-(3-(4-isopropoxyphenyl)cyclopentyl)-1-methyl-1H-pyrazole-4-carboxamide]
EC50 [1]: < 0.1 µM

COCCOc1ccc(C2CCC(c3nn(C)c(N)c3C(=O)Nc3ccc(F)c(Cl)c3)C2)cc1 (centres unmarked) [AIA-297, 5-Amino-N-(3-chloro-4-fluorophenyl)-3-(3-(4-(2-methoxyethoxy)phenyl)cyclopentyl)-1-methyl-1H-pyrazole-4-carboxamide]
EC50 [1]: < 0.1 µM

CS(=O)(=O)CC1(O)CC2CC(c3n[nH]c(N)c3C(=O)Nc3ccc(F)c(Cl)c3)CC2C1 (centres unmarked) [AIA-310]
EC50: < 0.1 µM

Cn1nc(C2CC3CC(O)(CS(=O)(=O)CCCN4CCNC(=O)C4)CC3C2)c(C(=O)Nc2ccc(F)c(Cl)c2)c1N (centres unmarked) [AIA-350, 5-Amino-N-(3-chloro-4-fluorophenyl)-3-(5-hydroxy-5-(((3-(3-oxopiperazin-1-yl)propyl)sulfonyl)methyl)octahydropentalen-2-yl)-1-methyl-1H-pyrazole-4-carboxamide]
EC50 [1]: 0.5 to 10 µM

Cn1nc([C@@H]2CC[C@@H](c3cnc(C(F)(F)F)s3)C2)c(C(=O)Nc2ccc(F)c(Cl)c2)c1N [AIA-354, 5-Amino-N-(3-chloro-4-fluorophenyl)-1-methyl-3-((1R,3R)-3-(2-(trifluoromethyl)thiazol-5-yl)cyclopentyl)-1H-pyrazole-4-carboxamide]
EC50 [1]: 0.5 to 10 µM

Cn1nc(C2CCC(c3csc(C(F)(F)F)n3)C2)c(C(=O)Nc2ccc(F)c(Cl)c2)c1N (centres unmarked) [AIA-355, 5-Amino-N-(3-chloro-4-fluorophenyl)-1-methyl-3-(3-(2-(trifluoromethyl)thiazol-4-yl)cyclopentyl)-1H-pyrazole-4-carboxamide]
EC50 [1]: 0.5 to 10 µM

Cn1nc(C2CC3CC(O)(CN4CCOCC4)CC3C2)c(C(=O)Nc2ccc(F)c(Cl)c2)c1N (centres unmarked) [AIA-364-1, 5-Amin o-N-(3-chloro-4-fluorophenyl)-3-(5-hydroxy-5-(morpholinomethyl)octahydropentalen-2-yl)-1-methyl-1H-pyrazole-4-carboxamide]
EC50 [1]: 0.5 to 10 µM

COc1cc(-c2cn(C)cn2)ccc1C1CCC(c2nn(C)c(N)c2C(=O)Nc2ccc(F)c(Cl)c2)C1 (centres unmarked) [AIA-365-1, 5-Amino-N-(3-chloro-4-fluorophenyl)-3-(3-(2-methoxy-4-(1-methyl-1H-imidazol-4-yl)phenyl)cyclopentyl)-1-methyl-1H-pyrazole-4-carboxamide]
EC50 [1]: 0.1 to 0.5 µM

COc1cc(-c2c[nH]cn2)ccc1C1CCC(c2nn(C)c(N)c2C(=O)Nc2ccc(F)c(Cl)c2)C1 (centres unmarked) [AIA-366-1, 3-(3-(4-(1H-Imidazol-4-yl)-2-methoxyphenyl)cyclopentyl)-5-amino-N-(3-chloro-4-fluorophenyl)-1-methyl-1H-pyrazole-4-carboxamide]
EC50 [1]: 0.1 to 0.5 µM

COc1cc(-c2cnn(C)c2)ccc1C1CCC(c2nn(C)c(N)c2C(=O)Nc2ccc(F)c(Cl)c2)C1 (centres unmarked) [AIA-369, 5-Amino-N-(3-chloro-4-fluorophenyl)-3-(3-(2-methoxy-4-(1-methyl-1H-pyrazol-4-yl)phenyl)cyclopentyl)-1-methyl-1H-pyrazole-4-carboxamide]
EC50 [1]: 0.1 to 0.5 µM

COc1cc(-c2nccs2)ccc1C1CCC(c2nn(C)c(N)c2C(=O)Nc2ccc(F)c(Cl)c2)C1 (centres unmarked) [AIA-371, 5-Amino-N-(3-chloro-4-fluorophenyl)-3-(3-(2-methoxy-4-(thiazol-2-yl)phenyl)cyclopentyl)-1-methyl-1H-pyrazole-4-carboxamide]
EC50 [1]: 0.5 to 10 µM

COc1cc(-c2cscn2)ccc1C1CCC(c2nn(C)c(N)c2C(=O)Nc2ccc(F)c(Cl)c2)C1 (centres unmarked) [AIA-372, 5-Amino-N-(3-chloro-4-fluorophenyl)-3-(3-(2-methoxy-4-(thiazol-4-yl)phenyl)cyclopentyl)-1-methyl-1H-pyrazole-4-carboxamide]
EC50 [1]: < 0.1 µM

COc1cc(C(=O)NCCS(C)(=O)=O)ccc1C1CCC(c2nn(C)c(N)c2C(=O)Nc2ccc(F)c(Cl)c2)C1 (centres unmarked) [AIA-387-1]
EC50 [1]: 0.1 to 0.5 µM

COc1cc(C(=O)NCCS(C)(=O)=O)ccc1C1CCC(c2nn(C)c(N)c2C(=O)Nc2ccc(F)c(Cl)c2)C1 (centres unmarked) [AIA-387-2, 5-Amino-N-(3-chloro-4-fluorophenyl)-3-(3-(2-methoxy-4-((2-(methylsulfonyl)ethyl)carbamoyl)phenyl)cyclopentyl)-1-methyl-1H-pyrazole-4-carboxamide]
EC50: < 0.1 µM

Reference: patent US11560370B1, “5-membered heteroaryl carboxamide compounds for treatment of HBV” (Assembly Biosciences, Inc., priority 2018, dated 2023)
